Data from article PMC12481613, “Boldine as a neuroprotective agent against motor neuron degeneration in models of amyotrophic lateral sclerosis” (Frontiers in Cellular Neuroscience, 2025).

Target: T1, connexin 43 (Cx43) hemichannel (Homo sapiens, UniProt P17302)
T1 construct: gene GJA1; human Cx43 tagged with GFP (hCx43-GFP)
Assay: TO-PRO-3 dye uptake in HeLa cells transfected with hCx43-GFP, Ca2+-free HBSS
Type: cell-based

T1 sequence (P17302 2-382): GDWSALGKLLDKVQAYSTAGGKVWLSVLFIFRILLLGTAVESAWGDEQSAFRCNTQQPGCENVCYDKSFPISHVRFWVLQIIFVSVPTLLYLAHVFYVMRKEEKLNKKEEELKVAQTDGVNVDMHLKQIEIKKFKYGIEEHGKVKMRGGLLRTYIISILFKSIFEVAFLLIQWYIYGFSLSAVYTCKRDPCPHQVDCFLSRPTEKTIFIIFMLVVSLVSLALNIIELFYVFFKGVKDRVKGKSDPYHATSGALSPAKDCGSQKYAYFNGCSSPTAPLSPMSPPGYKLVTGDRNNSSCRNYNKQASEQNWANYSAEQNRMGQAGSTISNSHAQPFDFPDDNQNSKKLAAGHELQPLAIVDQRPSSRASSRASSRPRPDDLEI

Question: Which IC50 does the source give for `COc1cc2c(cc1O)C[C@H]1c3c(cc(O)c(OC)c3-2)CCN1C` [boldine] here?
Answer: 12.5 µM
